Data as given in US20220298186A1, “BIARYL DIALKYL PHOSPHINE OXIDE FPR2 AGONISTS” (BRISTOL-MYERS SQUIBB COMPANY, priority 2019, published 2022).

Assays:
[1] = target: T1, human FPR2 receptors (Homo sapiens, UniProt P25090); experiment: FPR2 cyclic adenosine monophosphate (cAMP) assay; type: cell-based; conditions: CHO cells overexpressing human FPR2; forskolin 5 μM, IBMX 200 μM; 30 min at rt; inhibition of cAMP production (HTRF); read-out: hFPR2 cAMP2 EC50
T1 sequence (P25090 1-351): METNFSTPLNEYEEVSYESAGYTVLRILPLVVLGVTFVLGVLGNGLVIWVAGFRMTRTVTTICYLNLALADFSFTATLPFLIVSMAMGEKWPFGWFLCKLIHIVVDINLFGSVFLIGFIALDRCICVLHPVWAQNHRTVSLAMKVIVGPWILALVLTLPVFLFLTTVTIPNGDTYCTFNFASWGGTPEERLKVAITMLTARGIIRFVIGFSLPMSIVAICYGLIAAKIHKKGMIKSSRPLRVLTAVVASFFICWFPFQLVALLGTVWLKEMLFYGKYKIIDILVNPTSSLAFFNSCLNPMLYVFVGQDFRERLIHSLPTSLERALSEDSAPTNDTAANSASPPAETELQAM
Excerpt: (§1) N-formyl peptide receptors (FPRs) are a family of chemo attractant receptors that facilitate leukocyte response during inflammation. FPRs belong to the seven-transmembrane G protein-coupled receptor superfamily and are linked to inhibitory G-proteins (Gi). Three family members (FPR1, FPR2 and FPR3) have been identified in humans and are predominantly found in myeloid cells with varied distribution and have also been reported in multiple organs and tissues. After agonist binding, the FPRs activate a multitude of physiological pathways, such as intra cellular signaling transduction, Ca^2+ mobilization and transcription. The family interacts with a diverse set of ligands that includes proteins, polypeptides and fatty acid metabolites which activate both pro-inflammatory and pro-resolution downstream responses. FPR2 and FPR1 Cyclic Adenosine Monophosphate (cAMP) Assays were used to measure the activity of the compounds in this patent.
(§2) FPR2 and FPR1 Cyclic Adenosine Monophosphate (cAMP) Assays. A mixture of forskolin (5 μM final for FPR2 or 10 μM final for FPR1) and IBMX (200 μM final) were added to 384-well Proxiplates (Perkin-Elmer) pre-dotted with test compounds in DMSO (1% final) at final concentrations in the range of 0.020 nM to 100 μM. Chinese Hamster Ovary cells (CHO) overexpressing human FPR1 or human FPR2 receptors were cultured in F-12 (Ham's) medium supplemented with 10% qualified FBS, 250 μg/mL zeocin and 300 μg/mL hygromycin (Life Technologies). Reactions were initiated by adding 2,000 human FPR2 cells per well or 4,000 human FPR1 cells per well in Dulbecco's PBS (with calcium and magnesium) (Life Technologies) supplemented with 0.1% BSA (Perkin-Elmer). The reaction mixtures were incubated for 30 min at rt. The level of intracellular cAMP was determined using the HTRF HiRange cAMP assay reagent kit (Cisbio) according to manufacturer's instruction. Solutions of cryptate conjugated anti-cAMP and d2 flurorophore-labelled cAMP were made in a supplied lysis buffer separately. Upon completion of the reaction, the cells were lysed with equal volume of the d2-cAMP solution and anti-cAMP solution. After a 1-h rt incubation, time-resolved fluorescence intensity was measured using the Envision (Perkin-Elmer) at 400 nm excitation and dual emission at 590 nm and 665 nm. A calibration curve was constructed with an external cAMP standard at concentrations ranging from 1 μM to 0.1 μM by plotting the fluorescent intensity ratio from 665 nm emission to the intensity from the 590 nm emission against cAMP concentrations. The potency and activity of a compound to inhibit cAMP production was then determined by fitting to a 4-parametric logistic equation from a plot of cAMP level versus compound concentrations.
(§3) The examples disclosed below were tested in the FPR2 and FPR1 cAMP assay described above and found having FPR2 and/or FPR1 agonist activity. Table 1 below lists EC50 values in the FPR2 and FPR1 cAMP assays measured for the following examples.

[2] = target: T2, human FPR1 receptors (Homo sapiens, UniProt P21462); experiment: FPR1 cyclic adenosine monophosphate (cAMP) assay; type: cell-based; conditions: CHO cells overexpressing human FPR1; forskolin 10 μM, IBMX 200 μM; 30 min at rt; inhibition of cAMP production (HTRF); read-out: hFPR1 cAMP EC50
T2 sequence (P21462 1-350): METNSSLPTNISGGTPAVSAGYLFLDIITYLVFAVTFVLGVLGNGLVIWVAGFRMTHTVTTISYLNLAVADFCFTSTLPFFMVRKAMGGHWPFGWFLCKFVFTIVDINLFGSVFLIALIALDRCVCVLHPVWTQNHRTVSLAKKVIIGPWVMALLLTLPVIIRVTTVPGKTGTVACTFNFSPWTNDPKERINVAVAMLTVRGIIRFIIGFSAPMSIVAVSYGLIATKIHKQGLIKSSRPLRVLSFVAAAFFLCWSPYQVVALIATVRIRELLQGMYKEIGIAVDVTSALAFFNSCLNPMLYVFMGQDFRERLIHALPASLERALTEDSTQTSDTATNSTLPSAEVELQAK
Excerpt: as §1, §2, §3

EC50 [1] [nM]	EC50 [2] [nM]	Compound
2.7	1300	CP(C)(=O)c1ccccc1-c1ccc(N2CCC[C@@H](NC(=O)Nc3ccc(C(F)(F)F)cn3)C2=O)c(F)c1F [Example 12, 3-[(3R)-1-[2′-(Dimethylphosphoryl)-2,3-difluoro-[1,1′-biphenyl]-4-yl]-2-oxopiperidin-3-yl]-1-[5-(trifluoromethyl)pyridin-2-yl]urea]
0.63	7.1	CP(C)(=O)c1ccccc1-c1ccc(N2CCC[C@@H](NC(=O)Nc3ncc(Cl)cc3F)C2=O)c(C2CC2)c1 [Example 4, 1-(5-Chloro-3-fluoropyridin-2-yl)-3-[(3R)-1-[3-cyclopropyl-2′-(dimethylphosphoryl)-[1,1′-biphenyl]-4-yl]-2-oxopiperidin-3-yl]urea]
